Experimental data published in US9931335B2, “Desethylhydroxychloroquine for the treatment of diseases associated with inflammation” (The Board of Trustees of the Leland Stanford Junior …, priority 2013, dated 2018).
Entries after “also recorded” stand apart in the source; their conditions may differ.

Assays:
[1] = tested on: DMM-induced OA in C57BL6 (B6) mice; assay: Destabilization of the medial meniscus (DMM) mouse model of osteoarthritis; type: in vivo; conditions: 3 months, vs vehicle; for Cartilage Degeneration Score (OA score): aminoquinolines 100 mg/kg/day, atorvastatin 40 mg/kg/day, oral gavage from 1 week after DMM, two-tailed T test
Description: One week following surgical induction, treatment was initiated with vehicle control, hydroxychloroquine (HCQ), or desethylhydroxychloroquine (DHCQ) dosed at 100 mg/kg/day by oral gavage (once per day). After 3 months, mice were sacrificed, joints harvested, joint sections cut, and tissue sections stained with safranin-O. An examiner blinded to treatment used microscopy to score the severity of OA. The “Cartilage Degeneration Score” (also known as the “OA score”, “Severity Score” and “Histology Score”) was determined by a blinded examiner, and the two-tailed T test used to determine if there were statistical differences in the Cartilage Degeneration Scores between groups.
The histologic sections generated at the termination of the mouse OA experiment presented above and in FIG. 5 were subject to blinded scoring for the “Osteophyte Score” (measure of the amount of osteophyte or ectopic bone formation) and “Synovitis Score” (measure of the amount of synovial and joint inflammation). The scores between groups were compared by two-tailed T test.
Experiments were performed under protocols approved by the Stanford University Committee of Animal Research and in accordance with NIH guidelines. Murine OA was generated by surgically by destabilization of the DMM (Glasson, S., S., et al., Osteoarthritis Cartilage, 15: 1061-1069 (2007)).
Mice were euthanized 3 months after surgery. Their stifle joints were decalcified in EDTA solution, fixed in 4% paraformaldehyde, and embedded in paraffin. Serial 4 micron sections were cut and stained with toluidine blue. Scoring of arthritis in these histology sections was done according to a modified version of previously described composite scoring systems (Kamekura, S., et al. Osteoarthritis Cartilage 13: 632-641 (2005); Bendele, A. M., J Musculoskelet Neuronal Interact., 1: 363-376 (2001)). The “OA Score” was calculated as follows: cartilage degeneration (0-4) was multiplied by the width (1=1/3, 2=2/3, and 3=3/3 of surface area) of each third of the femoral-medial and tibial-medial condyles, and the scores for the 6 regions were summed. To evaluate osteophyte (ectopic bone) formation, we scored toluidine-blue-stained sections according to a previously described scoring system (Kamekura, S., et al. Osteoarthritis development in novel experimental mouse models induced by knee joint instability. Osteoarthritis Cartilage 13, 632-641 (2005)): 0, none; 1, formation of cartilage-like tissues; 2, increase of cartilaginous matrix; 3, endochondral ossification. To evaluate synovitis, we scored H&E-stained sections according to a previously described scoring system (Blom, A. B., et al. Synovial lining macrophages mediate osteophyte formation during experimental osteoarthritis. Osteoarthritis Cartilage 12, 627-635 (2004)): 0, no changes compared to normal joints; 1, thickening of the synovial lining and some influx of inflammatory cells; 2, thickening of the synovial lining and intermediate influx of inflammatory cells; and 3, profound thickening of the synovial lining (more than four cell layers) and maximal observed influx of inflammatory cells. Scores for osteophyte formation and synovitis were recorded for the femoral-medial and the tibial-medial condyles on the operated side of the joint, and the scores for the two regions were summed and statistical comparisons performed using a two-tailed T test.
Treatment was started 1 week after surgical induction of destabilization of the medial meniscus (DMM), a time point at which mice were at increased risk for the development of OA.

[2] = tested on: retinal toxicity; assay: Estimated retinal toxicity of long-term DHCQ therapy in humans; type: in vivo, human
Description: The estimated rate of retinal toxicity for long-term treatment with DHCQ is less than 50% of the currently reported rate for HCQ when used at a similar effective cumulative dose and over a similar time period. More specifically, as compared to the rates of retinal toxicity described by Marmor et al. for treatment with HCQ (Ophthalmology. 2011 February; 118(2):415-22), given a similar level of therapeutic activity and time period of dosing for both HCQ and DHCQ, DHCQ is estimated to provide less than 50% of retinal toxicity as compared to that with HCQ dosing. Thus, in patient populations analogous to that described by the […] and Marmor et al (Ophthalmology. 2011 February; 118(2):415-22) where the retinal toxicity rate approach 1% after 5 years, DHCQ therapy is estimated to reduce the retinal toxicity to less that 0.5% of treated individuals. Further, given conventional assumptions that retinal screening is justified as rates of toxicity approach 1%, the reduced cumulative rates of retinal toxicity associated with DHCQ therapy will substantially reduce the need for retinal toxicity screening to a single screening at 5 and 10 years, or entirely negate the need for screening.

[3] = tested on: human OA; conditions: cited from earlier work
[4] = tested on: retinal toxicity; conditions: cited from earlier work

Compound	Osteophyte Score ([1]; 100 mg/kg/day oral gavage)	Cartilage Degeneration Score (OA score) [1]	Synovitis Score ([1]; oral gavage)	estimated retinal toxicity rate in treated individuals after 5 years ([2]; population where HCQ rate approaches 1% after 5 years) [%]	estimated rate of retinal toxicity, as share of the reported rate for HCQ ([2]; similar effective cumulative dose and time period)	Cartilage Degeneration Score (OA score) ([1]; listed as Hydroxychloroquine)	therapeutic benefit in erosive OA ([3]; case series)	disease-modifying or pain-reducing activity in non-erosive OA ([3]; in vivo)	prevalence of retinal toxicity ([4]; conventional doses, 400 mg/day common)	retinal toxicity after 5-7 years of use ([4]; in vivo) [%]	risk of retinal toxicity after 7 years of usage or 1000 grams of total exposure ([4]; in vivo) [times higher]	risk of retinal toxicity after about 7 years of treatment ([4]; in vivo)	incidence of retinal toxicity after 5 years ([4]; treated humans, conventional doses)
CC(CCCNCCO)Nc1ccnc2cc(Cl)ccc12 (centres unmarked) [DHCQ, desethylhydroxychloroquine]	statistically prevented and reduced; also recorded: statistically significant protection against the development of synovitis and osteophytes	statistically prevented and reduced the severity of OA; also recorded: statistically prevented and reduced the severity of cartilage degeneration	statistically prevented and reduced; also recorded: statistically significant protection against the development of synovitis and osteophytes	< 0.5	less than 50%								
CCN(CCO)CCCC(C)Nc1ccnc2cc(Cl)ccc12 (centres unmarked) [HCQ, hydroxychloroquine]		only resulted in trends towards improvement; also recorded: did not result in a statistically significant reduction in the severity of OA				did not result in a statistically signification prevention or reduction in OA severity	trends towards therapeutic benefit	has not demonstrated disease-modifying or pain-reducing activity	6.8 users per 1,000	~1	5	approximately 1%	approximately 1%
